Source: BindingDB's records for patent US12297186 (Agomab Spain, S.L.U., 2025)

Biological target: T1, TGF-beta receptor type-1 (Homo sapiens, UniProt P36897)
T1 sequence (P36897 whole entry): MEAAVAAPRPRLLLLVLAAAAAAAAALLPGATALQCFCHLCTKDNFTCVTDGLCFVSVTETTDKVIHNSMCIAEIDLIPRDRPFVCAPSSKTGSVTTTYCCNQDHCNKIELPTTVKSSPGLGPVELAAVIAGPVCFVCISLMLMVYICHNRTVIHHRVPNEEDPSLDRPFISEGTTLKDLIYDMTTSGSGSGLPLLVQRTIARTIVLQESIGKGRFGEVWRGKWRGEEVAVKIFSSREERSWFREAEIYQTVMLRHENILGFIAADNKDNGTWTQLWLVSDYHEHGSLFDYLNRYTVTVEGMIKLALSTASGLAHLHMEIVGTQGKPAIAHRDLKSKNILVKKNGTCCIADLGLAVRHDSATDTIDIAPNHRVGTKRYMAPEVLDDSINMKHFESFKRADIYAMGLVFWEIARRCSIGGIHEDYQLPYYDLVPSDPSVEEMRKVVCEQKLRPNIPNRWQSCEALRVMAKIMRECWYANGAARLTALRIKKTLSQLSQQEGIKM
Experiment: In Vitro Enzyme Assay
Procedure: Human TGFβl R-1 inhibition experiments were carried out in a white 384-microplate low flange (Corning 3572) with ADP-Glo kinase Assay Kit (Promega V9101) and TGβR-1 Kinase Enzyme System (Promega V4092). […] The reaction mixture was incubated in gentle shaking for 120 min at RT, after incubation of 10 μL of ADP-Glo Reagent was added and incubated in gentle shaking for 40 min at RT. 20 μL of Kinase Detection Reagent was added and plate was incubated in gentle shaking for 30 min at RT. Luminiscence (1000 ms) was measured in Perkin Elmer EnSpire Multimode plate reader.

| IC50 | SMILES |
| --- | --- |
| in the range around 450 nM | CC1C=C(CNC(=O)Cn2cc(-c3ccnc4ccccc34)c(-c3ccccn3)n2)C=CC1 (centres undefined) [US12297186, Example 10] |
| in the range around 450 nM | O=C(Cn1cc(-c2ccnc3ccccc23)c(-c2ccccn2)n1)NCC1=CC(F)CC=C1 (centres undefined) [US12297186, Example 11] |
| in the range around 450 nM | O=C(Cn1cc(-c2ccnc3ccccc23)c(-c2ccccn2)n1)NCC1=CC(Cl)CC=C1 (centres undefined) [US12297186, Example 12] |
| in the range around 450 nM | N#CC1C=C(CNC(=O)Cn2cc(-c3ccnc4ccccc34)c(-c3ccccn3)n2)C=CC1 (centres undefined) [US12297186, Example 13] |
